In paper PMC7403827 (Clinical and Translational Medicine, 2020):

Test: Adverse events (CTCAE 4.0) under apatinib plus gefitinib
Assay type: in vivo, human
Conditions: Apatinib 250 mg Cohort (n = 7), with gefitinib 250 mg; treatment‐related AE, patients (%)

## N#CC1(c2ccc(NC(=O)c3cccnc3NCc3ccncc3)cc2)CCCC1 [Apatinib]
  Abdominal distention, ALL: 2 (28.6%)
  Abdominal distention, Grade 1–2: 2 (28.6%)
  Abdominal distention, Grade 3–4: 0
  Blurred vision, ALL: 0
  Blurred vision, Grade 1–2: 0
  Blurred vision, Grade 3–4: 0
  Cough, ALL: 4 (57.1%)
  Cough, Grade 1–2: 4 (57.1%)
  Cough, Grade 3–4: 0
  Diarrhea, ALL: 5 (71.4%)
  Diarrhea, Grade 1–2: 5 (71.4%)
  Diarrhea, Grade 3–4: 0
  Dizziness, ALL: 0
  Dizziness, Grade 1–2: 0
  Dizziness, Grade 3–4: 0
  Dry skin, ALL: 2 (28.6%)
  Dry skin, Grade 1–2: 2 (28.6%)
  Dry skin, Grade 3–4: 0
  Dysgeusia, ALL: 1 (14.3%)
  Dysgeusia, Grade 1–2: 1 (14.3%)
  Dysgeusia, Grade 3–4: 0
  Eczema, ALL: 1 (14.3%)
  Eczema, Grade 1–2: 1 (14.3%)
  Eczema, Grade 3–4: 0
  Elevated ALT, ALL: 3 (42.9%)
  Elevated ALT, Grade 1–2: 2 (28.6%)
  Elevated ALT, Grade 3–4: 1 (14.3%)
  Elevated AST, ALL: 2 (28.6%)
  Elevated AST, Grade 1–2: 1 (14.3%)
  Elevated AST, Grade 3–4: 1 (14.3%)
  Epistaxis, ALL: 3 (42.9%)
  Epistaxis, Grade 1–2: 3 (42.9%)
  Epistaxis, Grade 3–4: 0
  Fatigue, ALL: 2 (28.6%)
  Fatigue, Grade 1–2: 2 (28.6%)
  Fatigue, Grade 3–4: 0
  Gastrointestinal bleeding, ALL: 1 (14.3%)
  Gastrointestinal bleeding, Grade 1–2: 1 (14.3%)
  Gastrointestinal bleeding, Grade 3–4: 0
  HFSR, ALL: 2 (28.6%)
  HFSR, Grade 1–2: 2 (28.6%)
  HFSR, Grade 3–4: 0
  Haematuria, ALL: 1 (14.3%)
  Haematuria, Grade 1–2: 1 (14.3%)
  Haematuria, Grade 3–4: 0
  Headache, ALL: 1 (14.3%)
  Headache, Grade 1–2: 1 (14.3%)
  Headache, Grade 3–4: 0
  Hematochezia, ALL: 1 (14.3%)
  Hematochezia, Grade 1–2: 1 (14.3%)
  Hematochezia, Grade 3–4: 0
  Hypertension, ALL: 5 (71.4%)
  Hypertension, Grade 1–2: 4 (57.1%)
  Hypertension, Grade 3–4: 1 (14.3%)
  Increased bilirubin, ALL: 1 (14.3%)
  Increased bilirubin, Grade 1–2: 1 (14.3%)
  Increased bilirubin, Grade 3–4: 0
  Increased creatinine, ALL: 0
  Increased creatinine, Grade 1–2: 0
  Increased creatinine, Grade 3–4: 0
  Leukopenia, ALL: 0
  Leukopenia, Grade 1–2: 0
  Leukopenia, Grade 3–4: 0
  Nausea, ALL: 0
  Nausea, Grade 1–2: 0
  Nausea, Grade 3–4: 0
  Neutropenia, ALL: 0
  Neutropenia, Grade 1–2: 0
  Neutropenia, Grade 3–4: 0
  Oulorrhagia, ALL: 3 (42.9%)
  Oulorrhagia, Grade 1–2: 3 (42.9%)
  Oulorrhagia, Grade 3–4: 0
  Paronychia, ALL: 1 (14.3%)
  Paronychia, Grade 1–2: 1 (14.3%)
  Paronychia, Grade 3–4: 0
  Periodontitis, ALL: 1 (14.3%)
  Periodontitis, Grade 1–2: 1 (14.3%)
  Periodontitis, Grade 3–4: 0
  Pharyngalgia, ALL: 1 (14.3%)
  Pharyngalgia, Grade 1–2: 1 (14.3%)
  Pharyngalgia, Grade 3–4: 0
  Pneumonia (non‐interstitial), ALL: 1 (14.3%)
  Pneumonia (non‐interstitial), Grade 1–2: 1 (14.3%)
  Pneumonia (non‐interstitial), Grade 3–4: 0
  Proteinuria, ALL: 3 (42.9%)
  Proteinuria, Grade 1–2: 2 (28.6%)
  Proteinuria, Grade 3–4: 1 (14.3%)
  Pruritus, ALL: 0
  Pruritus, Grade 1–2: 0
  Pruritus, Grade 3–4: 0
  Rash, ALL: 5 (71.4%)
  Rash, Grade 1–2: 5 (71.4%)
  Rash, Grade 3–4: 0
  Stomatitis, ALL: 2 (28.6%)
  Stomatitis, Grade 1–2: 2 (28.6%)
  Stomatitis, Grade 3–4: 0
  Thrombocytopenia, ALL: 0
  Thrombocytopenia, Grade 1–2: 0
  Thrombocytopenia, Grade 3–4: 0
  Trachyphonia, ALL: 2 (28.6%)
  Trachyphonia, Grade 1–2: 2 (28.6%)
  Trachyphonia, Grade 3–4: 0
  Vomiting, ALL: 0
  Vomiting, Grade 1–2: 0
  Vomiting, Grade 3–4: 0
